Data: patent US20100004285A1, “POLYMORPH OF 4-[2-[4-[1-(2-ETHOXYETHYL)-1H-BENZIMIDAZOLE-2-YL]-1-PIPERIDINYL]ETHYL]-alpha alpha-DIMETHYL-BENZENEACETIC ACID” (FAES FARMA, S.A., priority 2002, published 2010)
“Also recorded” adds a separate entry of the source.

Experiments:
[1] = stability of the crystalline polymorphic forms of bilastine; format: physicochemical
[2] = test system: histamine-induced lethality; assay: preventing histamine-induced lethality in the guinea-pig; format: in vivo
[3] = test system: cutaneous capillary permeability induced by histamine; assay: antagonism against cutaneous capillary permeability induced by histamine in the rat; format: in vivo

| SMILES | stability of the crystalline form [1] | transformation into the other polymorphs [1] | stability of the polymorph at room temperature ([1]; room temperature) | stability when stored at temperatures above room temperature ([1]; stored at temperatures above room temperature) | antihistaminic properties: histamine-induced lethality [2] | antihistaminic properties: cutaneous capillary permeability induced by histamine [3] |
| --- | --- | --- | --- | --- | --- | --- |
| CCOCCn1c(C2CCN(CCc3ccc(C(C)(C)C(=O)O)cc3)CC2)nc2ccccc21 [crystalline form 3, 4-[2-[4-[1-(2-ethoxyethyl)-1H benzimidazole-2-yl]-1-piperidinyl]ethyl]-αα-dimethyl-benzeneacetic acid] | not very stable; also recorded: the most unstable | – | – | – | – | – |
| CCOCCn1c(C2CCN(CCc3ccc(C(C)(C)C(=O)O)cc3)CC2)nc2ccccc21 [crystalline form 2, 4-[2-[4-[1-(2-ethoxyethyl)-1H benzimidazole-2-yl]-1-piperidinyl]ethyl]-αα-dimethyl-benzeneacetic acid] | stable | – | – | – | – | – |
| CCOCCn1c(C2CCN(CCc3ccc(C(C)(C)C(=O)O)cc3)CC2)nc2ccccc21 [crystalline form 1, 4-[2-[4-[1-(2-ethoxyethyl)-1H benzimidazole-2-yl]-1-piperidinyl]ethyl]-αα-dimethyl-benzeneacetic acid] | stable; also recorded: very stable | not transformed into any of the other polymorphs 2 and 3 | very stable | stable | preventing histamine-induced lethality | antagonism against cutaneous capillary permeability induced by histamine |
